Measurements from ChEMBL document CHEMBL3124779, “Discovery of ABT-267, a pan-genotypic inhibitor of HCV NS5A” (J Med Chem, 2014).

Columns and labels:
Hepatitis C virus [1] = experiment: Antiviral activity against HCV1b harboring NS5A L28T mutant infected in human HuH7 cells assessed as inhibition of viral replication after 4 days by luciferase reporter gene assay; assay type: functional, Hepacivirus hominis, genotype 1b, Huh-7
Hepatitis C virus [2] = experiment: Antiviral activity against HCV6a infected in human HuH7 cells assessed as inhibition of viral replication after 4 days by luciferase reporter gene assay; assay type: functional, organism-based, Hepacivirus hominis; details: genotype 6a, Huh-7, 96 h
Hepatitis C virus [3] = experiment: Resistant ratio of EC50 for wild type HCV1a to EC50 for HCV1a harboring NS5A H58D mutant infected in human HuH7 cells; assay type: functional, Hepacivirus hominis, subtype 1a, Huh-7
Hepatitis C virus [4] = experiment: Antiviral activity against HCV1b harboring NS5A L31F and Y93H mutant infected in human HuH7 cells assessed as inhibition of viral replication after 4 days by luciferase reporter gene assay; assay type: functional, Hepacivirus hominis, genotype 1b, Huh-7
Hepatitis C virus [5] = experiment: Antiviral activity against HCV1b harboring NS5A L28M and Y93H mutant infected in human HuH7 cells assessed as inhibition of viral replication after 4 days by luciferase reporter gene assay; assay type: functional, Hepacivirus hominis, genotype 1b, Huh-7
[6] = Half life in dog at 1 mg/kg, iv; assay type: ADME, organism-based, Canis lupus familiaris; parameters: dose 1 mg/kg, route intravenous; details: in vivo
[7] = Half life in HCV1 infected patient at 5 to 200 mg qd for 3 days; assay type: ADME, organism-based; details: human, in vivo
Hepatitis C virus [8] = experiment: Antiviral activity against HCV3a infected in human HuH7 cells assessed as inhibition of viral replication after 4 days by luciferase reporter gene assay; assay type: functional, organism-based, Hepacivirus hominis; details: genotype 3a, Huh-7, 96 h
Hepatitis C virus [9] = experiment: Resistant ratio of EC50 for wild type HCV1a to EC50 for HCV1a harboring NS5A Q30R mutant infected in human HuH7 cells; assay type: functional, Hepacivirus hominis, subtype 1a, Huh-7
Hepatitis C virus [10] = experiment: Antiviral activity against HCV1b harboring NS5A L31V and Y93H mutant infected in human HuH7 cells assessed as inhibition of viral replication after 4 days by luciferase reporter gene assay; assay type: functional, Hepacivirus hominis, genotype 1b, Huh-7
[11] = Volume of distribution at steady state in rat at 3 mg/kg, iv; assay type: ADME, organism-based; parameters: dose 3 mg/kg, route intravenous; details: in vivo, read-out: Vdss
[12] = AUC in rat at 3 mg/kg, po; assay type: ADME, organism-based; parameters: dose 3 mg/kg, route oral; details: plasma
Hepatitis C virus [13] = experiment: Antiviral activity against HCV1b harboring NS5A L31V mutant infected in human HuH7 cells assessed as inhibition of viral replication after 4 days by luciferase reporter gene assay; assay type: functional, Hepacivirus hominis, genotype 1b, Huh-7
[14] = Metabolic stability in human liver microsomes assessed as compound remaining after 30 mins; assay type: ADME; details: read-out: Stability
[15] = Cmax in HCV1 infected patient at 5 to 200 mg qd for 3 days; assay type: ADME, organism-based; details: human, in vivo
[16] = Clearance in dog at 1 mg/kg, iv; assay type: ADME, organism-based, Canis lupus familiaris; parameters: dose 1 mg/kg, route intravenous; details: in vivo
Hepatitis C virus [17] = experiment: Antiviral activity against HCV2b infected in human HuH7 cells assessed as inhibition of viral replication after 4 days by luciferase reporter gene assay; assay type: functional, organism-based, Hepacivirus hominis; details: genotype 2b, Huh-7, 96 h
Hepatitis C virus [18] = experiment: Antiviral activity against HCV5a infected in human HuH7 cells assessed as inhibition of viral replication after 4 days by luciferase reporter gene assay; assay type: functional, organism-based, Hepacivirus hominis; details: genotype 5a, Huh-7, 96 h
Hepatitis C virus [19] = experiment: Antiviral activity against HCV4a infected in human HuH7 cells assessed as inhibition of viral replication after 4 days by luciferase reporter gene assay; assay type: functional, organism-based, Hepacivirus hominis; details: genotype 4a, Huh-7, 96 h
[20] = Half life in monkey at 1 mg/kg, iv; assay type: ADME, organism-based, Macaca mulatta; parameters: dose 1 mg/kg, route intravenous; details: rhesus monkey, in vivo
Hepatitis C virus [21] = experiment: Antiviral activity against HCV1a harboring NS5A H58D mutant infected in human HuH7 cells assessed as inhibition of viral replication after 4 days by luciferase reporter gene assay; assay type: functional, Hepacivirus hominis, subtype 1a, Huh-7
[22] = Metabolic stability in rat liver microsomes assessed as compound remaining after 30 mins; assay type: ADME; details: read-out: Stability
Hepatitis C virus [23] = experiment: Antiviral activity against HCV1b harboring NS5A Y93H mutant infected in human HuH7 cells assessed as inhibition of viral replication after 4 days by luciferase reporter gene assay; assay type: functional, Hepacivirus hominis, genotype 1b, Huh-7
[24] = Oral bioavailability in dog at 2.5 mg/kg; assay type: ADME, organism-based, Canis lupus familiaris; details: in vivo
Hepatitis C virus [25] = experiment: Antiviral activity against HCV1b harboring NS5A L31F mutant infected in human HuH7 cells assessed as inhibition of viral replication after 4 days by luciferase reporter gene assay; assay type: functional, Hepacivirus hominis, genotype 1b, Huh-7
Hepatitis C virus [26] = experiment: Antiviral activity against HCV2a infected in human HuH7 cells assessed as inhibition of viral replication after 4 days by luciferase reporter gene assay; assay type: functional, organism-based, Hepacivirus hominis; details: genotype 2a, Huh-7, 96 h
[27] = Cmax in monkey at 2.5 mg/kg, po; assay type: ADME, organism-based, Macaca mulatta; parameters: dose 2.5 mg/kg, route oral; details: rhesus monkey, in vivo
Hepatitis C virus [28] = experiment: Resistant ratio of EC50 for wild type HCV1b to EC50 for HCV1b harboring NS5A L28T mutant infected in human HuH7 cells; assay type: functional, Hepacivirus hominis, genotype 1b, Huh-7
Homo sapiens [29] = organism: Homo sapiens; experiment: Toxicity in HCV1 infected patient assessed as mortality at 5 to 200 mg qd for 3 days; assay type: organism-based; details: in vivo, 72 h
[30] = Cmax in rat at 3 mg/kg, po; assay type: ADME, organism-based; parameters: dose 3 mg/kg, route oral; details: in vivo
[31] = Tmax in monkey at 2.5 mg/kg, po; assay type: ADME, organism-based, Macaca mulatta; parameters: dose 2.5 mg/kg, route oral; details: rhesus monkey, in vivo
[32] = Volume of distribution at steady state in monkey at 1 mg/kg, iv; assay type: ADME, organism-based, Macaca mulatta; parameters: dose 1 mg/kg, route intravenous; details: rhesus monkey, in vivo, read-out: Vdss
[33] = Half life in rat at 3 mg/kg, iv; assay type: ADME, organism-based; parameters: dose 3 mg/kg, route intravenous; details: in vivo
Homo sapiens [34] = organism: Homo sapiens; experiment: Toxicity in HCV1 infected patient assessed as adverse event at 5 to 200 mg qd for 3 days; assay type: organism-based; details: in vivo, 72 h
[35] = Half life in dog at 2.5 mg/kg, po; assay type: ADME, organism-based, Canis lupus familiaris; parameters: dose 2.5 mg/kg, route oral; details: in vivo
[36] = Tmax in rat at 3 mg/kg, po; assay type: ADME, organism-based; parameters: dose 3 mg/kg, route oral; details: in vivo
[37] = Oral bioavailability in monkey at 2.5 mg/kg; assay type: ADME, organism-based, Macaca mulatta; details: rhesus monkey, in vivo
Hepatitis C virus [38] = experiment: Resistant ratio of EC50 for wild type HCV1b to EC50 for HCV1b harboring NS5A R30Q and Y93H mutant infected in human HuH7 cells; assay type: functional, Hepacivirus hominis, genotype 1b, Huh-7
Hepatitis C virus [39] = experiment: Antiviral activity against HCV1a harboring NS5A M28T mutant infected in human HuH7 cells assessed as inhibition of viral replication after 4 days by luciferase reporter gene assay; assay type: functional, Hepacivirus hominis, subtype 1a, Huh-7
Hepatitis C virus [40] = experiment: Antiviral activity against HCV1a H77 infected in human HuH7 cells assessed as inhibition of viral replication after 4 days by luciferase reporter gene assay; assay type: functional, organism-based, Hepacivirus hominis; details: genotype 1a H77, Huh-7, 96 h
[41] = Lipophilicity, log D of the compound at pH 7.4 by HPLC analysis; assay type: physicochemical; details: buffer
Hepatitis C virus [42] = experiment: Resistant ratio of EC50 for wild type HCV1b to EC50 for HCV1b harboring NS5A L31V and Y93H mutant infected in human HuH7 cells; assay type: functional, Hepacivirus hominis, genotype 1b, Huh-7
Hepatitis C virus [43] = experiment: Resistant ratio of EC50 for wild type HCV1a to EC50 for HCV1a harboring NS5A M28V mutant infected in human HuH7 cells; assay type: functional, Hepacivirus hominis, subtype 1a, Huh-7
[44] = Clearance in monkey at 1 mg/kg, iv; assay type: ADME, organism-based, Macaca mulatta; parameters: dose 1 mg/kg, route intravenous; details: rhesus monkey, in vivo
Hepatitis C virus [45] = experiment: Antiviral activity against HCV1b harboring NS5A R30Q and Y93H mutant infected in human HuH7 cells assessed as inhibition of viral replication after 4 days by luciferase reporter gene assay; assay type: functional, Hepacivirus hominis, genotype 1b, Huh-7
[46] = AUC in monkey at 2.5 mg/kg, po; assay type: ADME, organism-based, Macaca mulatta; parameters: dose 2.5 mg/kg, route oral; details: rhesus monkey, plasma
Hepatitis C virus [47] = experiment: Antiviral activity against HCV1a harboring NS5A M28V mutant infected in human HuH7 cells assessed as inhibition of viral replication after 4 days by luciferase reporter gene assay; assay type: functional, Hepacivirus hominis, subtype 1a, Huh-7
Hepatitis C virus [48] = experiment: Antiviral activity against HCV1a harboring NS5A Y93H mutant infected in human HuH7 cells assessed as inhibition of viral replication after 4 days by luciferase reporter gene assay; assay type: functional, Hepacivirus hominis, subtype 1a, Huh-7

## COC(=O)N[C@H](C(=O)N1CCC[C@H]1C(=O)Nc1ccc([C@@H]2CC[C@@H](c3ccc(NC(=O)[C@@H]4CCCN4C(=O)[C@@H](NC(=O)OC)C(C)C)cc3)N2c2ccc(C(C)(C)C)cc2)cc1)C(C)C [OMBITASVIR]
Hepatitis C virus [1]
  Efficacy: 17%
Hepatitis C virus [2]
  EC50: 0.415 nM
Hepatitis C virus [3]
  Ratio EC50: 243
Hepatitis C virus [4]
  Efficacy: 35%
Hepatitis C virus [5]
  Efficacy: 104%
[6]
  half-life: 474 min
[7]
  half-life: 1500 min
Hepatitis C virus [8]
  EC50: 0.0193 nM
Hepatitis C virus [9]
  Ratio EC50: 800
Hepatitis C virus [10]
  Efficacy: 24%
[11]
  Vd: 5.9 L/kg
[12]
  AUC: 290 ng·h/mL
Hepatitis C virus [13]
  Efficacy: 86%
[14]
  remaining at 0.5 h: 60%
[15]
  Cmax: 5.7 ng/mL
[16]
  clearance: 3 mL/min/kg
Hepatitis C virus [17]
  EC50: 4.3 pM
Hepatitis C virus [18]
  EC50: 4.3 pM
Hepatitis C virus [19]
  EC50: 1.71 pM
[20]
  half-life: 264 min
Hepatitis C virus [21]
  Efficacy: 66%
[22]
  remaining at 0.5 h: 73%
Hepatitis C virus [23]
  Efficacy: 73%
[24]
  bioavailability: 57%
Hepatitis C virus [25]
  Efficacy: 127%
Hepatitis C virus [26]
  EC50: 0.0124 nM
[27]
  Cmax: 290 ng/mL
Hepatitis C virus [28]
  Ratio EC50: 661
Homo sapiens [29]
  Activity: Non-toxic
[30]
  Cmax: 10 ng/mL
[31]
  Tmax: 3.3 h
[32]
  Vd: 1.5 L/kg
[33]
  half-life: 594 min
Homo sapiens [34]
  Activity: Non-toxic
[35]
  half-life: 438 min
[36]
  Tmax: 3.7 h
[37]
  bioavailability: 35%
Hepatitis C virus [38]
  Ratio EC50: 284
Hepatitis C virus [39]
  Efficacy: 100%
Hepatitis C virus [40]
  EC50: 0.014 nM
[41]
  logD: 5.4
Hepatitis C virus [42]
  Ratio EC50: 12323
Hepatitis C virus [43]
  Ratio EC50: 58
[44]
  clearance: 6.33 mL/min/kg
Hepatitis C virus [45]
  Efficacy: 60%
[46]
  AUC: 2400 ng·h/mL
Hepatitis C virus [47]
  Efficacy: 87%
Hepatitis C virus [48]
  Efficacy: 18%
